This note sets out measurements from patent US20260191999A1, “COMPOUNDS AND THEIR USE” (KING'S COLLEGE LONDON, priority 2022, published 2026).

Test [1] concerns A549-WT and A549-KO-ALDH1A1 human lung cancer cells. In words: Cell uptake of radiotracer, A549-WT vs A549-KO-ALDH1A1. The test is classed as cell-based. Particulars: ALDH1A1 positive vs ALDH1A1 negative cell line. Here is the method: A549-KO-ALDH1A1 cells were obtained using an ALDH1A1 human gene knockout kit (Cat #KN400723) according to manufacturer's instructions (Origene, Rockville, MD, USA). Briefly, 3×10^5 A549 cells were seeded into a 6-well plate and maintained for 24 hours at 37° C., 5% CO2. Lipofectamine 3000 (Cat #L^3000, Invitrogen) was mixed with 1 μg of gRNA vector (pCas-guide) and 1 μg of donor template in Opti-MEM and added to cells for 16 hours. The next day, the transfection medium was removed and replaced with fresh medium. Forty-eight hours post-transfection, medium was replaced with fresh medium containing 0.5 μg/mL of puromycin (Cat #A1113803) which caused 100% cell death in non-transfected control cells after 5 days. Cells resistant to puromycin were subjected to clonal selection by the limiting dilution method. Knockout of protein was confirmed by western blots.
(§1) For cell uptake studies SKOV3-ip1 and SKOV3-TRip2, A549-WT, A549-KO-ALDH1A1, HEK293-WT and HEK293-ALDH1A1 cells were plated in 6 well plates 24 h prior to the studies, as described above (Western Blotting). One mL of fresh media containing 0.37 MBq of PQM-H-001 and 6 KBq PQM-H-002 was added to each well for the desired incubation time. At 40 min, plates were placed on ice, washed three times with ice-cold PBS to remove exogenous radioactivity and lysed in RIPA buffer ([…]; Fisher Scientific Ltd).
(§2) For all cell uptake and efflux study decay-corrected radioactivity in lysates was determined on a gamma counter ([…]; Wallac 1282 CompuGamma counter), with the remaining cell lysate centrifuged (21,000×g for 10 min at 4° C.) and the supernatant used to determine protein concentration following radioactive decay using a Pierce BCA assay. To quantify radiotracer uptake in cells, three standard solutions of the radioactivity-containing medium were counted on the gamma counter. Data were expressed as a percentage of total radioactivity administered to cells per mg of protein.
The following compounds were profiled in A549-WT (positive ALDH1A1) and A549-KO-ALDH1A1 (negative for ALDH1A1) human lung cancer cells as well as HEK293-WT (negative for ALDH1A1) and HEK293-ALDH1A1 (positive for ALDH1A1) human embryonic kidney cells. The fold difference in radiotracer retention for the ALDH1A1 positive cell lines as compared to the ALDH1A1 negative cell lines for each compound is shown in Table 2.

Test [2] concerns the target T1, human recombinant ALDH1A1 (Homo sapiens, UniProt P00352).
T1 construct: purchased bio-techne
T1 sequence (P00352 1-501): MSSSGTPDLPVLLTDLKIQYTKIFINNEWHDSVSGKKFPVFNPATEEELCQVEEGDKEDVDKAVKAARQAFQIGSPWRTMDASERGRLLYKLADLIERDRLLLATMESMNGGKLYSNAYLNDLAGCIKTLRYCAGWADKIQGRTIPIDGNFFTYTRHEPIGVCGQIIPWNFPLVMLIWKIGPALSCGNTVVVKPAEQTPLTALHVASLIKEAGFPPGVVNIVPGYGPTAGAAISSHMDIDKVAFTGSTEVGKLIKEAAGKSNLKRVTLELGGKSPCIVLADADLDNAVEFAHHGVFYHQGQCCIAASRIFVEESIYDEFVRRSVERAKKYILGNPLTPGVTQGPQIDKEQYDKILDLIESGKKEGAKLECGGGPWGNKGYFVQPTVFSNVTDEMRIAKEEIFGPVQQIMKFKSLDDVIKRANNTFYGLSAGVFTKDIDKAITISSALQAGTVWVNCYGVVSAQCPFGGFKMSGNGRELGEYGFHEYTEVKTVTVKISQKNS
In words: ALDH activity colorimetric assay (Biovision), ALDH1A1. Particulars: Table 1, class symbols. The test is classed as biochemical. As for the experimental part:
ALDH substrate kinetics were measured using an ALDH activity colorimetric assay kit (Biovision) according to the manufacturer's instructions. 1 μg/well human recombinant ALDH1A1 (bio-techne), ALDH2 (abcam), or ALDH3A1 (ATGen Co., Ltd) were used. The assay was initiated by the addition of enzyme after all reagents were pre-warmed to 37° C. Plates were read in kinetic mode on a Multiskan FC plate reader (Thermo Scientific) at 450 nm over 40 min at 37° C.
The in vitro potency of the cold, non-radioactive reference compound compared against two different ALDH isoforms, ALDH1A1 and ALDH2 (using the ALDH activity colorimetric assay Kit (Biovision)).
Other reference compounds (PQM-C) were compared against ALDH1A1 (using the ALDH activity colorimetric assay Kit (Biovision)).

Test [3] deals with HEK293-ALDH1A1 and HEK293-WT human embryonic kidney cells. The test can be described thus: Cell uptake of radiotracer, HEK293-ALDH1A1 vs HEK293-WT. Particulars: ALDH1A1 positive vs ALDH1A1 negative cell line. In kind it is cell-based. As for the experimental part: HEK293 stably overexpressing ALDH1A1 were obtained by infecting cells with lentiviral particles containing the nucleotide sequences encoding for human ALDH1A1 (Origene RC200723L^4V LentiORF particles (mGFP-tagged)). Briefly, 1×10^4 HEK-293 cells were seeded into a 24-well plate and maintained for 24 hours at 37° C., 5% CO2. Cells were then infected with the lentiviral particles using a multiplicity of infection (MOI) of 10 in the presence of hexadimethrine bromide (6 μg/mL) (Sigma-Aldrich, St. Louis, MO, USA). The next day, medium was removed and replaced with fresh medium. At 36 h post-infection, medium was replaced with complete culture medium containing puromycin (1 μg/ml) which caused 100% cell death in non-transduced control cells after 5 days. Cells resistant to puromycin were subjected to clonal selection by the limiting dilution method. Overexpression of ALDH1A1 was confirmed by western blots and real-time PCR.
as §1
For all cell uptake and efflux study decay-corrected radioactivity in lysates was determined on a gamma counter ([…]; Wallac 1282 CompuGamma counter), with the remaining cell lysate centrifuged (21,000×g for 10 min at 4° C.) and the supernatant used to determine protein concentration following radioactive decay using a Pierce BCA assay. To quantify radiotracer uptake in cells, three standard solutions of the radioactivity-containing medium were counted on the gamma counter. Data were expressed as a percentage of total radioactivity administered to cells per mg of protein. […]

The test system of test [4] is SKOV3-TRip2 and SKOV3-ip1 cells. The test can be described thus: Cell uptake of radiotracer, drug-resistant vs drug-sensitive SKOV3 cells. In kind it is cell-based, human. As for the experimental part:
as §1, §2
Next, the time-dependent uptake of the of the radiotracers PQM-H-001 ([^18F]PQM-H-001) and PQM-H-002 ([^125I]PQM-H-002) was profiled in drug-resistant SKOV3-Trip2 and drug-sensitive SKOV3-ip1 cell lines (Pereira, R., et al. 2019).

Molecules are shown by their SMILES. Bounds are passed on as bounds.

`CS(=O)(=O)N1CCN(C(=O)c2cnc3ccccc3c2-c2ccc(C3(C#N)CC3)c([125I])c2)CC1` [PQM-H-022, 1-(2-(fluoro-^125I)-4-(3-(4-(methylsulfonyl)piperazine-1-carbonyl)quinolin-4-yl)phenyl)cyclopropane-1-carbonitrile]: in test [1], the “fold difference in radiotracer retention, A549-WT vs A549-KO-ALDH1A1” value (shortened to “fold difference … vs A549-KO-ALDH1A1”) was 6 fold. A word on the IC50: it is the concentration needed to halve the response being measured. Consider `CS(=O)(=O)N1CCN(C(=O)c2cnc3cc(I)ccc3c2-c2ccc(C3(C#N)CC3)cc2)CC1` [PQM-C-012, 1-(4-(7-Iodo-3-(4-(methylsulfonyl)piperazine-1-carbonyl)quinolin-4-yl)phenyl)cyclopropane-1-carbonitrile], for which the IC50 in test [2] was in the range of 10 to 100 nM. On to `CS(=O)(=O)N1CCN(C(=O)c2cnc3c([N+](=O)[O-])cc([125I])cc3c2-c2ccc(C3(C#N)CC3)cc2)CC1` [PQM-H-007, 1-(4-(6-(iodo-^125I)-3-(4-(methylsulfonyl)piperazine-1-carbonyl)-8-nitroquinolin-4-yl)phenyl)cyclopropane-1-carbonitrile], for which the “fold difference … vs A549-KO-ALDH1A1” value in test [1] is on record as 17 fold. Further, the “fold difference in radiotracer retention, HEK293-ALDH1A1 vs. HEK293-WT” value (“fold difference … HEK293-ALDH1A1 vs. HEK293-WT” for short) in test [3] is listed as 2 fold.

With `CS(=O)(=O)N1CCN(C(=O)c2cnc3c([125I])cccc3c2-c2ccc(C3(C#N)CC3)cc2)CC1` [PQM-H-017, 1-(4-(8-(fluoro-^125I)-3-(4-(methylsulfonyl)piperazine-1-carbonyl)quinolin-4-yl)phenyl)cyclopropane-1-carbonitrile], the “fold difference … vs A549-KO-ALDH1A1” value in test [1] came to 16 fold. Further, in test [3], the “fold difference … HEK293-ALDH1A1 vs. HEK293-WT” value is reported as 6 fold. On to `CS(=O)(=O)N1CCN(C(=O)c2cnc3ccccc3c2-c2ccc(C3(C#N)CC3)c(F)c2)CC1` [PQM-C-021], for which the IC50 in test [2] is ≤ 10 nM. On to `CS(=O)(=O)N1CCN(C(=O)c2cnc3c([N+](=O)[O-])cc(I)cc3c2-c2ccc(C3(C#N)CC3)cc2)CC1` [PQM-C-007, 1-(4-(6-Iodo-3-(4-(methylsulfonyl)piperazine-1-carbonyl)-8-nitroquinolin-4-yl)phenyl)cyclopropane-1-carbonitrile], for which the IC50 in test [2] lay in the range of 10 to 100 nM. Regarding `CS(=O)(=O)N1CCN(C(=O)c2cnc3c(F)cccc3c2-c2ccc(C3(C#N)CC3)cc2)CC1` [PQM-C-016, 1-(4-(8-Fluoro-3-(4-(methylsulfonyl)piperazine-1-carbonyl)quinolin-4-yl)phenyl)cyclopropane-1-carbonitrile], in test [2], the IC50 lay within 10 to 100 nM.

Take `CS(=O)(=O)N1CCN(C(=O)c2cnc3ccccc3c2N2CCC(C#N)(c3ccc(F)cc3)CC2)CC1` [PQM-C-026, 4-(4-fluorophenyl)-1-(3-(4-(methylsulfonyl)piperazine-1-carbonyl)quinolin-4-yl)piperidine-4-carbonitrile]: in test [2], the IC50 was ≤ 10 nM. As to `CS(=O)(=O)N1CCN(C(=O)c2cnc3cc(F)ccc3c2-c2ccc(C3(C#N)CC3)cc2)CC1` [PQM-C-011, 1-(4-(7-Fluoro-3-(4-(methylsulfonyl)piperazine-1-carbonyl)quinolin-4-yl)phenyl)cyclopropane-1-carbonitrile], in test [2], the IC50 was in the range of 10 to 100 nM. With `CS(=O)(=O)N1CCN(C(=O)c2cnc3c([N+](=O)[O-])cc(F)cc3c2-c2ccc(C3(C#N)CC3)cc2)CC1` [PQM-C-006, 1-(4-(6-Fluoro-3-(4-(methylsulfonyl)piperazine-1-carbonyl)-8-nitroquinolin-4-yl)phenyl)cyclopropane-1-carbonitrile], in test [2], the IC50 is 10 to 100 nM. On to `CS(=O)(=O)N1CCN(C(=O)c2cnc3c(I)cccc3c2-c2ccc(C3(C#N)CC3)cc2)CC1` [PQM-C-017, 1-(4-(8-Iodo-3-(4-(methylsulfonyl)piperazine-1-carbonyl)quinolin-4-yl)phenyl)cyclopropane-1-carbonitrile], for which, in test [2], the IC50 was 10 to 100 nM.

In the case of `CS(=O)(=O)N1CCN(C(=O)c2cnc3ccc([125I])cc3c2-c2ccc(C3(C#N)CC3)cc2)CC1` [PQM-H-002, 1-(4-(6-(iodo-^125I)-3-(4-(methylsulfonyl)piperazine-1-carbonyl)quinolin-4-yl)phenyl)cyclopropane-1-carbonitrile], the “Radiotracer retention, drug resistant versus drug-sensitive cells” value in test [4] was determined as 200 times higher. The “fold difference … vs A549-KO-ALDH1A1” value in test [1] came to 40 fold. Besides, the “fold difference … HEK293-ALDH1A1 vs. HEK293-WT” value in test [3] stood at 56 fold. Turning to `CS(=O)(=O)N1CCN(C(=O)c2cnc3ccccc3c2N2CCC(C#N)(c3ccc(I)cc3)CC2)CC1` [PQM-C-027, 4-(4-iodophenyl)-1-(3-(4-(methylsulfonyl)piperazine-1-carbonyl)quinolin-4-yl)piperidine-4-carbonitrile], in test [2], the IC50 lay within 100 to 1000 nM. With `CS(=O)(=O)N1CCN(C(=O)c2cnc3ccccc3c2-c2ccc(C3(C#N)CC3)c(I)c2)CC1` [PQM-C-022, 1-(2-Iodo-4-(3-(4-(methylsulfonyl)piperazine-1-carbonyl)quinolin-4-yl)phenyl)cyclopropane-1-carbonitrile], the IC50 in test [2] fell in the range of 1000 to 10000 nM.
